For one data set, the target named is Cholinesterase (Homo sapiens, UniProt P06276). As to the kind of experiment: Inhibition of human serum BChE using butyrylthiocholine iodide as substrate preincubated for 10 mins followed by substrate addition by Ellman's method. Format: cell-free.
The target of the next data set is Beta-secretase 1 (Homo sapiens, UniProt P56817). Put plainly: Inhibition of human BACE-1 using MOCA-SEV-NL-DAEFR-DNP-RR as substrate preincubated with substrate followed by enzyme addition by FRET assay.
Data set [1] has as its target T1, Acetylcholinesterase (Homo sapiens, UniProt P22303). Put plainly: Inhibition of human erythrocytes AChE using acetylthiocholine iodide as substrate preincubated for 10 mins followed by substrate addition by Ellman's method. The format is tissue-based, Erythrocyte.
Data set [2] is described as follows: Permeability of the compound in PBS/EtOH buffer (7:3) at 25 ug/ml after 18 hrs by PAMPA-BBB assay.
The nature of data set [3]: Acute toxicity in po dosed Wistar rat assessed as maximum tolerated dose by OCED guideline method. Format: organism-based. To be noted: in vivo.
For a further data set, the system named is SH-SY5Y. Put plainly: Neuroprotective activity against amyloid beta (1 to 42)-induced oxidative stress in human SH-SY5Y cells assessed as effect on cell viability at 10 to 80 uM measured after 24 hrs by MTT assay (reference value: 61 %). To be noted: dose microM 10-80. The format is functional.
A short description of data set [4]: Acute toxicity in Wistar rat assessed as abnormal signs at 100 to 500 mg/kg, po measured up to 14 days by OCED guideline method. To be noted: in vivo, 336 h, dose 100-500 mg/kg, time 14 day. The format is organism-based.
In data set [5] the target is Amyloid-beta precursor protein (Homo sapiens) (UniProt P05067). Particulars: dose microM 5-20, time 48.0 hrs.
For data set [6], the target named is T1, Acetylcholinesterase. Particulars: dose microM 5-20, time 48.0 hrs.
Data set [7] concerns Rattus norvegicus. Put plainly: Cognitive enhancing effect in scopolamine-induced Wistar rat model of amnesia assessed as increase in spontaneous alteration at 10 mg/kg, po pretreated for 7 days followed by scopolamine challenge and measured after 30 mins by Y-maze test. The format is functional, organism-based. To be noted: time 7.0 day.
In data set [8] the test system is Rattus norvegicus. Put plainly: Cognitive enhancing effect in po dosed scopolamine-induced Wistar rat model of amnesia assessed as increase in spontaneous alteration pretreated for 7 days followed by scopolamine challenge and measured after 30 mins by Y-maze test. The format is functional, organism-based. To be noted: dose mg/kg 2.5-10, time 7.0 day.
For data set [9], the system named is Rattus norvegicus. Put plainly: Improvement in learning and spatial memory in icv infused amyloid beta (1 to 42)-induced rat model of Alzheimer's disease assessed as reduction in escape latency at 5 mg/kg, po administered daily for 7 days starting from 7 days post surgery and measured daily for 5 days by Morris water maze test. Particulars: time 12.0 day. The format is functional, organism-based.

Data set [10] concerns Rattus norvegicus. Put plainly: Improvement in learning and spatial memory in icv infused amyloid beta (1 to 42)-induced rat model of Alzheimer's disease assessed as increase in number of platform crossing at 5 mg/kg, po administered daily for 7 days starting from 7 days post surgery and measured after 6 days by Morris water maze test. The format is functional, organism-based. Particulars: time 13.0 day.

Data set [11] is filed under the species Rattus norvegicus. Particulars: Wistar, dose 5.0 mg/kg, time 7.0 day.

30 compounds from ChEMBL document CHEMBL4665668, “Design and development of molecular hybrids of 2-pyridylpiperazine and 5-phenyl-1,3,4-oxadiazoles as potential multifunctional agents to treat Alzheimer's disease” (Eur J Med Chem, 2019) can be followed below.

Activity calls are given as the source filed them. No cut-off for these calls is given here. Some results are limits rather than exact numbers.

Chain of Beta-secretase 1 (P56817 whole entry): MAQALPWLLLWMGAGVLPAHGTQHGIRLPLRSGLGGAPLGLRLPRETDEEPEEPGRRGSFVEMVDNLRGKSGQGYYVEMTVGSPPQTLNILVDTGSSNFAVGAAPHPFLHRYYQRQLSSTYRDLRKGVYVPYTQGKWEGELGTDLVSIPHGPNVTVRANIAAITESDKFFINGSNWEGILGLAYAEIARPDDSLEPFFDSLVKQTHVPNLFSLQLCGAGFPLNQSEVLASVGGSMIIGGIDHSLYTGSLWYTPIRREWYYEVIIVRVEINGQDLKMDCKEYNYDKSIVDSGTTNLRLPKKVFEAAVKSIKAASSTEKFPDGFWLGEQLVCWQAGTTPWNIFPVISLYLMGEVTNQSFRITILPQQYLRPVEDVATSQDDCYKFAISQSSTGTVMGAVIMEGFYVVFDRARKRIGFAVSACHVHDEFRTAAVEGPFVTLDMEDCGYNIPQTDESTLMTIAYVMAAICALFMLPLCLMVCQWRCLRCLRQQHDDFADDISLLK
T1 sequence (P22303 whole entry): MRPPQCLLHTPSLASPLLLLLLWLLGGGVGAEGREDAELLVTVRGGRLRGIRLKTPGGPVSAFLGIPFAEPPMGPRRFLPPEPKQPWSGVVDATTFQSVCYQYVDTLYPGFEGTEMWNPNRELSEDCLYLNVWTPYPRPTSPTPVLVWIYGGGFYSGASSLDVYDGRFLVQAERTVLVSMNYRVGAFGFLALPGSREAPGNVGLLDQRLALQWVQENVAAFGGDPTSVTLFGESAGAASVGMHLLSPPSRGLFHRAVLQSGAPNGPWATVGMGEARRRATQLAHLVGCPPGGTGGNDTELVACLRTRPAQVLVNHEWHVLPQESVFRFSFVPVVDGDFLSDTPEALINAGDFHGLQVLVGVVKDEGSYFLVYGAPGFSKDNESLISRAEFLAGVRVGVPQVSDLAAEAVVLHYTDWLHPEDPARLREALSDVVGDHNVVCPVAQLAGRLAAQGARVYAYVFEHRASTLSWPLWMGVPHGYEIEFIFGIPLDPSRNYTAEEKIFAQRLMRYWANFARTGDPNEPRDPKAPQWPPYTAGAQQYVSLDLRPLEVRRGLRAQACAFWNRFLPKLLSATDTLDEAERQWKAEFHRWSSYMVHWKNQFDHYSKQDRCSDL
Chain of Cholinesterase (P06276 whole entry): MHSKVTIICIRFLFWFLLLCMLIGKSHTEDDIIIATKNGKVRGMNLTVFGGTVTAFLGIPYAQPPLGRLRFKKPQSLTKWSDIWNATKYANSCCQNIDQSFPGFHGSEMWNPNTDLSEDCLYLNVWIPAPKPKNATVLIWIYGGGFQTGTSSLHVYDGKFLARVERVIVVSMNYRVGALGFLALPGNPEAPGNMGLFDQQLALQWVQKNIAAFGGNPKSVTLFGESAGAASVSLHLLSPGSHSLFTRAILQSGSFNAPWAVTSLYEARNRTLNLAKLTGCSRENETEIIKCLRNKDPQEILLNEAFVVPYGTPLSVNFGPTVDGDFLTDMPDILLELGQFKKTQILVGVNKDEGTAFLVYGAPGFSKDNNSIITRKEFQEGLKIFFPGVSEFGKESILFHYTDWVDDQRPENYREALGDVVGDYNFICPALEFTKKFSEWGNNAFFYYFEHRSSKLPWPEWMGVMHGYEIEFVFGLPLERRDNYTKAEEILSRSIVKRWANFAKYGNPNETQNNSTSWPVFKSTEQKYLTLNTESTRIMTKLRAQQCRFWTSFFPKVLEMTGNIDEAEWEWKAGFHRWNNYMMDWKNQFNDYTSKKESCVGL
Chain of Amyloid-beta precursor protein (Homo sapiens) (P05067 whole entry): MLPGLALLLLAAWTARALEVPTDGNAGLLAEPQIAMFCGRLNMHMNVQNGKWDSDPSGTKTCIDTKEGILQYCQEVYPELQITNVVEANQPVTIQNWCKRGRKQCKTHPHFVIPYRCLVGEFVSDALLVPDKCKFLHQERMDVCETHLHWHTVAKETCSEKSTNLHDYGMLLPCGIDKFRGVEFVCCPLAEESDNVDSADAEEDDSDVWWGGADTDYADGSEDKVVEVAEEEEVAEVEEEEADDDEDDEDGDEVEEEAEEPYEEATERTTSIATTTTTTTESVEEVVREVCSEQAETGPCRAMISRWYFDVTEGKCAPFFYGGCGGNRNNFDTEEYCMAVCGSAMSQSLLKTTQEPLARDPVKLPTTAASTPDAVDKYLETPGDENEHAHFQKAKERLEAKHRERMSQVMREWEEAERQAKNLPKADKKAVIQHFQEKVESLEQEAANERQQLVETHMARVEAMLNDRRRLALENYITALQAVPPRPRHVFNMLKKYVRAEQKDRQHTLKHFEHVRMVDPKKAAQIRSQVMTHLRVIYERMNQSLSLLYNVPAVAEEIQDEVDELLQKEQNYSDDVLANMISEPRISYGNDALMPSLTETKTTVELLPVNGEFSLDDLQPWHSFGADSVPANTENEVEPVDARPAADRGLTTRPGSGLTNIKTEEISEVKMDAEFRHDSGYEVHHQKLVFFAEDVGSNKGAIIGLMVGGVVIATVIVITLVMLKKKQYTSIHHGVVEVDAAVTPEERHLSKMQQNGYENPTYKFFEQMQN

`Oc1ccc(-c2nnc(N3CCN(c4ccccn4)CC3)o2)cc1`: the IC50 was 6.02 µM against Cholinesterase, 1.78 µM against Beta-secretase 1 and 1.18 µM at Acetylcholinesterase [1].
The corresponding values for `O=[N+]([O-])c1ccc(-c2nnc(N3CCN(c4ccccn4)CC3)o2)cc1` are 2.86 µM, 1.34 µM and 0.219 µM.
The corresponding values for `COc1cc(-c2nnc(N3CCN(c4ccccn4)CC3)o2)cc(OC)c1OC` are 3.64 µM, 3.24 µM and 0.222 µM.
In the case of `FC(F)(F)c1ccc(-c2nnc(N3CCN(c4ccccn4)CC3)o2)cc1`, the IC50 against Cholinesterase came to 2.12 µM; at Beta-secretase 1, 0.465 µM; against Acetylcholinesterase [1], 0.182 µM. In data set [2], the Papp at 18 h, 25 ug/ml turned out to be 6.3 ×10⁻⁶ cm/s.
As for `O=C(N/N=C/c1ccccc1O)N1CCN(c2ccccn2)CC1`, the IC50 is greater than 10 µM against Cholinesterase, 5.88 µM against Beta-secretase 1 and greater than 10 µM against Acetylcholinesterase [1].
For `Oc1ccccc1-c1nnc(N2CCN(c3ccccn3)CC2)o1`, the IC50 is 8.22 µM against Cholinesterase, 2.23 µM against Beta-secretase 1 and 1.23 µM at Acetylcholinesterase [1].
For the compound `FC(F)(F)Oc1ccc(-c2nnc(N3CCN(c4ccccn4)CC3)o2)cc1`, the IC50 against Cholinesterase was 1.96 µM; against Beta-secretase 1, 0.822 µM; against Acetylcholinesterase [1], 0.089 µM. Also, in data set [2], the Papp at 18 h, 25 ug/ml is 6.8 ×10⁻⁶ cm/s.
For `Cc1cccc(/C=N/NC(=O)N2CCN(c3ccccn3)CC2)c1`, the IC50 against Cholinesterase is greater than 10 µM; against Beta-secretase 1 it was 4.37 µM; on Acetylcholinesterase [1], greater than 10 µM.
In the case of `Cc1cccc(-c2nnc(N3CCN(c4ccccn4)CC3)o2)c1`, the IC50 on Cholinesterase is greater than 10 µM; against Beta-secretase 1 it was 2.64 µM; against Acetylcholinesterase [1], 5.24 µM.
On the same counts, the results for `Cc1ccc(-c2nnc(N3CCN(c4ccccn4)CC3)o2)cc1` are greater than 10 µM, 2.48 µM and 1.02 µM.
The corresponding values for `COc1cccc(-c2nnc(N3CCN(c4ccccn4)CC3)o2)c1OC` are 5.22 µM, 2.16 µM and 1.19 µM.
In the case of `O=C(N/N=C/c1ccc(Br)cc1)N1CCN(c2ccccn2)CC1`, the figures for the IC50 against Cholinesterase, against Beta-secretase 1 and against Acetylcholinesterase [1] were 1.88 µM, 0.296 µM and 0.489 µM, respectively. Also, the apparent permeability coefficient (Papp) at 18 h, 25 ug/ml in data set [2] was found to be 3.6 ×10⁻⁶ cm/s.
As to `Brc1ccc(-c2nnc(N3CCN(c4ccccn4)CC3)o2)cc1`, the IC50 against Cholinesterase is 0.846 µM; against Beta-secretase 1, 0.126 µM; on Acetylcholinesterase [1], 0.074 µM. In data set [2], this compound had a Papp at 18 h, 25 ug/ml of 5.9 ×10⁻⁶ cm/s. The MTD in data set [3] stood at 100 mg/kg. Moreover, the Activity in the data set on SH-SY5Y is 63%; in [4], “Non-Toxic”; in the data set with Rattus norvegicus [8] it was “Dose-dependent effect”. In addition, the Flu intensity in data set [5] was 0.42; at Acetylcholinesterase [6], 0.6. The result in the data set on Rattus norvegicus [7] was Active.
As to `COc1cc2c(cc1OC)C(=O)C(CC1CCN(Cc3ccccc3)CC1)C2` (stereo not drawn), the outcome in the data set on Rattus norvegicus [9] and with Rattus norvegicus [10] was Active. Besides, in the data set listed under Rattus norvegicus [11], the inhibition result is “Active”. The same compound yielded a Flu intensity in data set [5] of 0.31.
As for `Fc1ccc(-c2nnc(N3CCN(c4ccccn4)CC3)o2)cc1`, the results for the IC50 against Cholinesterase, on Beta-secretase 1 and on Acetylcholinesterase [1] were 1.22 µM, 1.48 µM and 0.136 µM, respectively.
The corresponding values for `COc1cccc(/C=N/NC(=O)N2CCN(c3ccccn3)CC2)c1OC` are greater than 10 µM, 6.82 µM and greater than 10 µM.
The corresponding values for `O=C(N/N=C/c1ccc(O)cc1)N1CCN(c2ccccn2)CC1` are 6.15 µM, 4.68 µM and 4.81 µM.
As to `O=C(N/N=C/c1ccc(F)cc1F)N1CCN(c2ccccn2)CC1`, the IC50 against Cholinesterase was 3.97 µM; against Beta-secretase 1, 0.446 µM; on Acetylcholinesterase [1], 0.682 µM. For the same compound, in data set [2], the Papp at 18 h, 25 ug/ml was found to be 4.1 ×10⁻⁶ cm/s.
In the case of `O=C(N/N=C/c1ccc(Cl)cc1)N1CCN(c2ccccn2)CC1`, the IC50 was found to be 4.82 µM on Cholinesterase, 2.96 µM against Beta-secretase 1 and 3.42 µM against Acetylcholinesterase [1].
The corresponding values for `c1ccc(-c2nnc(N3CCN(c4ccccn4)CC3)o2)cc1` are 3.27 µM, 3.22 µM and 0.341 µM.
On the same counts, the results for `O=C(N/N=C/c1ccc(F)cc1)N1CCN(c2ccccn2)CC1` are 3.99 µM, 1.24 µM and 1.87 µM.
On the same counts, the results for `O=C(N/N=C/c1ccccc1)N1CCN(c2ccccn2)CC1` are 4.22 µM, 7.69 µM and 3.62 µM.
Regarding `Oc1ccc(-c2nnc(N3CCN(c4ccccn4)CC3)o2)c(O)c1`, the IC50 against Cholinesterase turned out to be 3.29 µM; against Beta-secretase 1 it was 0.382 µM; against Acetylcholinesterase [1], 1.34 µM.
The corresponding values for `O=C(N/N=C/c1ccc(OC(F)(F)F)cc1)N1CCN(c2ccccn2)CC1` are 4.35 µM, 0.248 µM and 2.91 µM.
On the same counts, the results for `O=C(N/N=C/c1ccc(C(F)(F)F)cc1)N1CCN(c2ccccn2)CC1` are 4.04 µM, 1.82 µM and 1.32 µM.
The corresponding values for `O=C(N/N=C/c1ccc([N+](=O)[O-])cc1)N1CCN(c2ccccn2)CC1` are 4.02 µM, 2.64 µM and 1.16 µM.
In the case of `Cc1ccc(/C=N/NC(=O)N2CCN(c3ccccn3)CC2)cc1`, the IC50 against Cholinesterase was greater than 10 µM; at Beta-secretase 1, 3.92 µM; against Acetylcholinesterase [1], 4.78 µM.
On the same counts, the results for `COc1cc(/C=N/NC(=O)N2CCN(c3ccccn3)CC2)cc(OC)c1OC` are 4.68 µM, 4.64 µM and 5.69 µM.
The corresponding values for `Clc1ccc(-c2nnc(N3CCN(c4ccccn4)CC3)o2)cc1` are 1.82 µM, 1.32 µM and 0.102 µM.
On the same counts, the results for `O=C(N/N=C/c1ccc(O)cc1O)N1CCN(c2ccccn2)CC1` are 4.82 µM, 4.64 µM and 4.68 µM.
